In brackets after ≈: the same amount, converted by molar mass. Read-outs that look alike come from different tables or passages of the source.
Legend:
[1] = tested on: Escherichia coli NIHJ JC-2; assay: In vitro antibacterial activity, two-fold agar-plate dilution method; format: cell-based; conditions: NIHJJC2, HI-agar, 37° C., 20 hours
Procedure: (§1) In vitro antibacterial activity was determined by the two-fold agar-plate dilution method as described below.
(§2) One loopful of an overnight culture of each test strain in Trypticase-soy broth (10^8 viable cells per ml.) was streaked on heart infusion agar (HI-agar) containing-graded concentrations of antibiotics, and the minimal inhibitory concentration (MIC) was expressed in terms of μg/ml. after incubation at 37° C. for 20 hours.

[2] = tested on: Proteus mirabilis 525; assay: as above; format: cell-based; conditions: HI-agar, 37° C., 20 hours
Procedure: as §1, §2

[3] = tested on: Klebsiella pneumoniae 417; assay: as above; format: cell-based
Procedure: as §1, §2

[4] = tested on: Escherichia coli 29; assay: MIC of strain used in the mouse infection test; format: cell-based; conditions: Escherichia coli, 29, 20 h
Procedure: as §1
(§3) One loopful of an overnight culture of each test strain in Trypticase-soy broth ([…]) was streaked on heart infusion agar (HI-agar) containing-graded concentrations of antibiotics, and the minimal inhibitory concentration (MIC) was expressed in terms of μg/ml. after incubation at 37° C. for 20 hours.

[5] = tested on: Escherichia coli 29; assay: Protecting effect against experimental infections in mice; format: in vivo, Male ICR strain mice; conditions: s.c. one hour after challenge, one week
Procedure: (§4) Male ICR strain mice aged 4 weeks, each weighing 20-23 g were used in groups of 8 mice. The test bacteria were cultured overnight at 37° C. on HI-agar and then suspended in 2.5-5% mucin solution to obtain the suspension corresponding to each challenge cells. Mice were inoculated intraperitoneally with 0.5 ml of the suspension. A solution containing each test compounds was given subcutaneously to the mice in various dosage one hour after challenge. The ED50 values were calculated from the number of surviving mice for each dosage after one week of observation.

[6] = Acute toxicity in mice; format: in vivo, ICR strain mice; conditions: 2 g intravenously; 10 mice; one week observation
Procedure: The same strain mice as aforesaid protecting test against experimental infections were used in groups of 10 mice. Test compound (8) (2 g) was administered intravenously to said mice.

[7] = tested on: Serratia marcesens 4; assay: MIC of strain used in the mouse infection test; format: cell-based; conditions: Serratia, 4, 20 h
Procedure: as §1, §3

[8] = tested on: Serratia marcesens 4; assay: Protecting effect against experimental infections in mice; format: in vivo, Male ICR strain mice; conditions: challenge 1.0 × 10^6 cells/mouse i.p.; s.c. one hour after challenge; one week
Procedure: as §4

[9] = tested on: Proteus vulgaris 1; assay: In vitro antibacterial activity, two-fold agar-plate dilution method; format: cell-based; conditions: HI-agar, 37° C., 20 hours
Procedure: as §1, §2

[10] = tested on: Bacillus subtilis ATCC 6633; assay: as above; format: cell-based; conditions: ATCC6633, HI-agar, 37° C., 20 hours
Procedure: as §1, §2
(§5) One loopful of an overnight culture of each test strain in Trypticase-soy broth (10^8 viable cells per ml.) was streaked on heart infusion agar (HI-agar) containing graded concentrations of test compounds, and the minimal inhibitory concentration (MIC) was expressed in terms of μg/ml. after incubation at 37° C. for 20 hours.

[11] = tested on: Proteus vulgaris IAM-1025; assay: as above; format: cell-based; conditions: IAM1025, HI-agar, 37° C., 20 hours
Procedure: as §1, §2
One loopful of an overnight culture of each test strain in Trypticase-soy broth (10^8 viable cells per ml.) was streaked on heart infusion agar (HI-agar) containing graded concentration of test compounds, and the minimal inhibitory concentration (MIC) was expressed in terms of μg/ml after incubation at 37° C. for 20 hours.

[12] = tested on: Escherichia coli 100; assay: MIC of strain used in the mouse infection test; format: cell-based
Procedure: as §1, §3

[13] = tested on: Escherichia coli 100; assay: Protecting effect against experimental infections in mice; format: in vivo, Male ICR strain mice; conditions: challenge 3.5 × 10^4 cells/mouse i.p.; s.c. one hour after challenge; one week
Procedure: as §4

[14] = tested on: Pseudomonas aeruginosa NCTC-10490; assay: In vitro antibacterial activity, two-fold agar-plate dilution method; format: cell-based; conditions: NCTC10490, HI-agar, 37° C., 20 hours
Procedure: as §1, §5

[15] = Klebsiella pneumoniae 417, HI-agar, 37° C., 20 hours, read-out: MIC
[16] = challenge 6 × 10^6 cells/mouse i.p.

SMILES	MIC [1]	MIC [2]	MIC [3, 15]	other results
CO/N=C(/C(=O)NC1C(=O)N2C(C(=O)O)=C(CSc3nnnn3C)CSC12)c1cccc(O)c1 (stereo not shown) [(3)]	50 µg/mL (≈ 98.9 µM)	25 µg/mL (≈ 49.5 µM)	6.25 µg/mL (≈ 12.4 µM)	–
CO/N=C(/C(=O)NC1C(=O)N2C(C(=O)O)=C(CSc3nnnn3C)CSC12)c1csc(N)n1 (stereo not shown) [(7)]	12.5 µg/mL (≈ 24.4 µM)	3.13 µg/mL (≈ 6.12 µM)	6.25 µg/mL (≈ 12.2 µM)	–
CO/N=C(\C(=O)NC1C(=O)N2C(C(=O)O)=C(COC(C)=O)CSC12)c1csc(N)n1 (stereo not shown) [(8)]	0.1 µg/mL (≈ 0.22 µM)	0.05 µg/mL (≈ 0.11 µM)	0.1 µg/mL (≈ 0.22 µM)	MIC ([4]; 10^6 viable cells/ml): ≤ 0.03 µg/mL; MIC ([4]; 10^8 viable cells/ml): 0.2 µg/mL; ED50 (S.C.) [5, 16]: < 0.005 mg/mouse; Acute toxicity (survival, disorder) [6]: All mice survived without showing any disorder
CO/N=C(/C(=O)NC1C(=O)N2C(C(=O)O)=C(COC(C)=O)CSC12)c1csc(N)n1 (stereo not shown) [(9)]	3.13 µg/mL (≈ 6.87 µM)	0.78 µg/mL (≈ 1.71 µM)	–	MIC ([3]; Klebsiella pneumoniae, 417, 20 h): 1.56 µg/mL (≈ 3.43 µM)
CO/N=C(\C(=O)NC1C(=O)N2C(C(=O)O)=C(CSc3nncs3)CSC12)c1csc(NC=O)n1 (stereo not shown) [(10)]	0.78 µg/mL (≈ 1.44 µM)	0.39 µg/mL (≈ 0.72 µM)	1.56 µg/mL (≈ 2.88 µM)	–
CO/N=C(/C(=O)NC1C(=O)N2C(C(=O)O)=C(CSc3nncs3)CSC12)c1csc(NC=O)n1 (stereo not shown) [(11)]	12.5 µg/mL (≈ 23.1 µM)	3.13 µg/mL (≈ 5.78 µM)	3.13 µg/mL (≈ 5.78 µM)	–
CO/N=C(\C(=O)NC1C(=O)N2C(C(=O)O)=C(COC(C)=O)CSC12)c1csc(NC=O)n1 (stereo not shown) [(12)]	1.56 µg/mL (≈ 3.23 µM)	0.78 µg/mL (≈ 1.61 µM)	1.56 µg/mL (≈ 3.23 µM)	MIC ([7]; 10^6 viable cells/ml): 6.25 µg/mL; MIC ([7]; 10^8 viable cells/ml): 200 µg/mL; ED50 (S.C.) [8]: 0.018 mg/mouse
CO/N=C(\C(=O)NC1C(=O)N2C(C(=O)O)=C(COC(N)=O)CSC12)c1csc(N)n1 (stereo not shown) [(13)]	1.56 µg/mL (≈ 3.42 µM)	0.025 µg/mL (≈ 0.0548 µM)	0.5 µg/mL (≈ 1.1 µM)	MIC ([7]; 10^6 viable cells/ml): ≤ 0.025 µg/mL; MIC ([7]; 10^8 viable cells/ml): 25 µg/mL; ED50 (S.C.) [8]: < 0.156 mg/mouse
CO/N=C(\C(=O)NC1C(=O)N2C(C(=O)O)=C(CSc3nncs3)CSC12)c1csc(N)n1 (stereo not shown) [(14)]	0.1 µg/mL (≈ 0.195 µM)	0.1 µg/mL (≈ 0.195 µM)	0.2 µg/mL (≈ 0.389 µM)	MIC ([4]; 10^6 viable cells/ml): ≤ 0.03 µg/mL; MIC ([4]; 10^8 viable cells/ml): ≤ 0.03 µg/mL; ED50 (S.C.) [5, 16]: < 0.005 mg/mouse
CO/N=C(\C(=O)NC1C(=O)N2C(C(=O)O)=C(CO)CSC12)c1csc(N)n1 (stereo not shown) [(15)]	0.78 µg/mL (≈ 1.89 µM)	0.1 µg/mL (≈ 0.242 µM)	0.05 µg/mL (≈ 0.121 µM)	–
CO/N=C(\C(=O)NC1C(=O)N2C(C(=O)O)=C(CSc3nnc(C)s3)CSC12)c1csc(N)n1 (stereo not shown) [(16)]	0.39 µg/mL (≈ 0.739 µM)	0.39 µg/mL (≈ 0.739 µM)	0.1 µg/mL (≈ 0.19 µM)	–
CO/N=C(\C(=O)NC1C(=O)N2C(C(=O)O)=C(CSc3nncn3C)CSC12)c1csc(N)n1 (stereo not shown) [(17)]	0.2 µg/mL (≈ 0.392 µM)	0.39 µg/mL (≈ 0.764 µM)	0.2 µg/mL (≈ 0.392 µM)	–
CO/N=C(\C(=O)NC1C(=O)N2C(C(=O)O)=C(COC(N)=O)CSC12)c1csc(NC(=O)C(F)(F)F)n1 (stereo not shown) [(18)]	3.13 µg/mL (≈ 5.67 µM)	0.025 µg/mL (≈ 0.0453 µM)	0.05 µg/mL (≈ 0.0905 µM)	–
C#CCO/N=C(\C(=O)NC1C(=O)N2C(C(=O)O)=C(COC(C)=O)CSC12)c1csc(N)n1 (stereo not shown) [(19)]	–	–	–	MIC [9]: 0.78 µg/mL (≈ 1.63 µM); MIC [10]: 3.13 µg/mL (≈ 6.53 µM); MIC [11]: 0.78 µg/mL (≈ 1.63 µM)
CC(C)O/N=C(\C(=O)NC1C(=O)N2C(C(=O)O)=C(COC(N)=O)CSC12)c1csc(N)n1 (stereo not shown) [(20)]	–	–	–	MIC [9]: 0.2 µg/mL (≈ 0.413 µM); MIC [10]: 1.56 µg/mL (≈ 3.22 µM); MIC [11]: 0.2 µg/mL (≈ 0.413 µM)
C=CCn1nnnc1SCC1=C(C(=O)O)N2C(=O)C(NC(=O)/C(=N\OC(C)C)c3csc(N)n3)C2SC1 (stereo not shown) [(21)]	–	–	–	MIC [9]: 0.78 µg/mL (≈ 1.38 µM); MIC [10]: 0.78 µg/mL (≈ 1.38 µM); MIC [11]: 0.78 µg/mL (≈ 1.38 µM)
CC(=O)OCC1=C(C(=O)O)N2C(=O)C(NC(=O)Cc3cccs3)C2SC1 (stereo not shown) [CET, 7(2-Thienyl)acetamidocephalosporanic acid, reference compound]	–	–	–	MIC ([4]; 10^6 viable cells/ml): 3.13 µg/mL; MIC ([4]; 10^8 viable cells/ml): 12.5 µg/mL; ED50 (S.C.) [5, 16]: 1.402 mg/mouse
Cc1nnc(SCC2=C(C(=O)O)N3C(=O)C(NC(=O)Cn4cnnn4)C3SC2)s1 (stereo not shown) [CEZ Na, reference compound]	–	–	–	MIC ([4]; 10^6 viable cells/ml): 0.78 µg/mL; MIC ([4]; 10^8 viable cells/ml): 3.13 µg/mL; ED50 (S.C.) ([5]; challenge 5.5 × 10^5 cells/mouse i.p.): 0.182 mg/mouse
CO/N=C(\C(=O)N[C@@H]1C(=O)N2C(C(=O)O)=C(COC(N)=O)CS[C@H]12)c1ccco1 [Cefuroxime, reference compound]	–	–	–	MIC of used strain ([12]; 10^6 viable cells/ml): 12.5 µg/mL; MIC ([12]; 20 h, 10^8 viable cells/ml): 12.5 µg/mL; MIC ([7]; 10^6 viable cells/ml): 50 µg/mL; MIC ([7]; 10^8 viable cells/ml): 400 µg/mL; ED50 (S.C.) [13]: 1.158 mg/mouse; ED50 (S.C.) [8]: 4.329 mg/mouse
C=CCO/N=C(\C(=O)NC1C(=O)N2C(C(=O)O)=C(CSc3nnnn3CC=C)CSC12)c1csc(N)n1 (stereo not shown) [Test Compound (3), 7-[2-Allyloxyimino-2-(2-aminothiazol-4-yl)acetamido]-3-(1-allyl-1H-tetrazol-5-yl)thiomethyl-3-cephem-4-carboxylic acid]	–	–	–	MIC [10]: 0.78 µg/mL (≈ 1.38 µM); MIC [14]: 6.25 µg/mL (≈ 11.1 µM)
CO/N=C(\C(=O)NC1C(=O)N2C(C(=O)O)=C(CSc3nc(C)ns3)CSC12)c1csc(N)n1 (stereo not shown) [Test Compound (3), 7-[2-Methoxyimino-2-(2-aminothiazol-4-yl)acetamido]-3-(3-methyl-1,2,4-thiadiazol-5-yl)thiomethyl-3-cephem-4-carboxylic acid]	–	–	–	MIC [10]: 1.56 µg/mL (≈ 2.96 µM)

Reference: patent US4493833A, “Syn-isomer of 3,7-disubstituted-3-cephem-4-carboxylic acid compounds” (Fujisawa Pharmaceutical Co., Ltd., priority 1976, dated 1985)
